Experimental data taken from US9759725B2, “Treatment-induced damage to the tumor micro-environment promotes cancer therapy resistance through extracellular proteins” (Fred Hutchinson Cancer Research Center, priority 2012, dated 2017).
Entries after “also recorded” stand apart in the source; their conditions may differ.

Tests used:
[1] = system: PC3 cells; assay: In vivo chemoresistance study: subrenal capsule xenografts treated with three cycles of MIT; design: species or system mouse
Description: All animal studies were performed in accordance with protocols approved by the Institutional Animal Care and Use Committee (IACUC) of Fred Hutchinson Cancer Research Center, and were carried out in accordance with the NIH Guide for laboratory animals. Mouse care/welfare and veterinary oversight were provided by the center animal care. ICR SCID mice (Taconic, Inc.) at an age of approximately 6 weeks (25 g body weight) were used. Rat tail collagen (high concentration, type I) was prepared before the ice-cold collagen solution was neutralized and adjusted to the proper osmolarity by adding a mixture of NaOH and ×10 PBS. To prepare tissue recombinants, fibroblasts (PSC27 strain) and epithelial cells (PC3, BPH1 or MDA-MB-231) were mixed at a ratio of 1:1, with each recombinant comprised of 250,000 cells of each line. After polymerization, the cell/collagen mixture was overlaid with growth medium and incubated at 37° C. for 1 hour before implantation.
Xenografting was performed under isoflurane anesthesia. A pocket beneath the back skin was formed using surgical scissors, with an oblique incision (<1 cm) made on the capsule surface parallel and adjacent to the long axis of each kidney. Cells were injected under the capsule with a blunt 25-gauge needle and a glass Hamilton syringe via a transrenal injection, forming a starting tumor with a volume of 1 to 2 mm^3. The kidney was returned to the retroperitoneal space and the skin was closed with surgical staples. The growth of xenografts was assessed at weekly intervals using ultrasound instruments. Animals were sacrificed at 2-8 weeks post transplantation, based on the tumor burden and pathological progression of tested animals. Upon dissection, tumor volume (V) was measured and calculated according to the tumor length (1) and width (w) by the following formula: V=(π/6)×((l+w)/2)^3 (Anand et al., Nat. Genet 31:301-305, 2002). Tumors were snap-frozen or processed conventionally for formalin fixation. Resulting sections were used for hematoxylin/eosin staining, and immunostaining for selected gene expression markers.
For chemoresistance studies, ICR SCID mice received subrenal capsule xenografts by implantation according to the procedure described above. After surgery, mice were given standard laboratory diets and water ad libitum for 2 weeks, to allow tumor uptake and growth initiation. Starting from the 3rd week (when tumor sizes reached from about 4 to about 8 mm in diameter), mice received Mitoxantrone at a dose of 0.2 mg/kg by i.p. injection, or vehicle control, on day 1 of week 3, week 5, and week 7 (Alderton et al., Cancer Res. 52:194-201, 1992). Between 8 and 12 mice were randomly assigned to each study arm. A total regimen of 3 2-week cycles was administered. After the final treatment cycle the mice were sacrificed, kidneys were removed for tumor measurement and histological analysis. The cumulative Mitoxantrone dose received per mouse was 0.6 mg/kg. Each experimental arm comprised 5-8 mice per treatment cohort.

[2] = system: PC3 cells; assay: Acute in vivo response to MIT: cleaved caspase 3 IHC in xenografts; design: species or system mouse; conditions: 24 hours after MIT
Description: For assessments of the acute effects of chemotherapy, mice harboring xenografts of PC3 cells combined with PSC27 fibroblasts were treated with Mitoxantrone 0.2 mg/kg by i.p. injection, or vehicle control. Xenografts were collected 24 hour after treatment and tissues were processed for IHC. Apoptosis was assessed by staining with anti-caspase 3 antibody (cleaved, BioCare Medical). On adjacent sections, immunostaining with anti-γH2AX (Upstate) was performed to quantitate cells with DNA-damage.

[3] = system: Wnt16b; assay: Systemic effect of MIT on Wnt16b expression in mouse organs (Western immunoblot); format: in vivo; conditions: mice, three MIT treatments over eight weeks
Description: To determine the systemic effects of MIT treatment on Wnt16b expression, parallel experiments involved administering MIT or vehicle as per the treatment schema above, to cohorts of mice (n=6) without xenografts. At the completion of the 8-week treatment regimen, mice were euthanized and various tissues were rapidly resected and snap frozen or fixed in formalin. Following protein isolations, Western immunoblot analysis was performed for Wnt16b expression, as described above.

[4] = system: primary prostate fibroblasts (PSC27 cells)
Description: After treatment, the cells were rinsed 3 times with PBS and left to recover for 3 days in PSC medium.
Cells growing on coverslips were rinsed, subjected to fixation in 4% paraformaldehyde and permeabilization with 0.1% Triton-X100 prior to immunostaining Primary mouse monoclonal anti-phospho-Histone H2A.X (Ser139) (clone JBW301) and secondary antibody Alexa Fluor® 488 (or 594)-conjugated F(ab′)2 goat anti-mouse IgG were sequentially applied. Nuclei were counterstained with 2 μg/ml of 4′,6-diamidino-2-phenylindole (DAPI) and coverslips were mounted onto glass slides. Upon visual examination of the DNA damage extent with immunofluorescence microscopy, DDR foci were recorded with a 4-category counting strategy, namely 4 classes: 0 foci, 1 to 3 foci, 4 to 10 foci, and >10 foci. Data from each cell line/treatment were averaged from a pool of 3 independent fields counting 100 nuclei per pool.

[5] = system: PC#/PSC27 cells; assay: Subcutaneous grafts of PC#/PSC27 cells treated with systemic RAPA and MIT; format: in vivo; conditions: RAPA used with MIT
[6] = system: prostate cancer cells; assay: Proliferation of prostate cancer cells in fibroblast conditioned medium; format: cell-based, human; conditions: cell numbers 72 hours after treatment
Description: The cultures were incubated for 3 days after which cells were detached with trypsin and the total cell number was determined by direct counting with hemacytometer. The PSC27/BPH1-GFP proportion was determined on a FACScan using GFP fluorescence as a marker for BPH1-GFP cells. […] The supernatant was harvested, filtered, concentrated and either stored frozen at −80° C. or applied immediately. BPH1-GFP, PC3 and other cell lines were seeded in conditioned medium or fresh DMEM+0.5% FBS, and grown for specific time periods and the total number of cells was determined by direct counting. All assays were performed at least three times and reported as mean values. Assays of cell proliferation were performed with the CellTiter96® AQueous One Solution Cell Proliferation Assay (MTS) with signals captured using a 96-well plate reader or by direct counting using a hemacytometer. […] Migrating or invading cells in the bottom chambers were stained and plate absorbance was recorded at 485/520 nm emission. Each assay was performed in triplicate and measured at 24 hour time points over 3 days and presented as the average absorbance of migrating cells and invading cells, with human HeLA cervical cancer cell line (ATCC) used as a reference positive control. […]

[7] = system: prostate cancer cells; assay: Trans-well invasion of prostate cancer cells in fibroblast conditioned medium; format: cell-based, human; conditions: 24 h of treatment
Description: All assays were performed at least three times and reported as mean values. Assays of cell proliferation were performed with the CellTiter96® AQueous One Solution Cell Proliferation Assay (MTS) with signals captured using a 96-well plate reader or by direct counting using a hemacytometer. For trans-well migration and invasion assays, serum-starved cells in serum-free medium were added to the top chambers of Cultrex 24-well Cell Migration Assay plates (8 μm size) coated with or without basement membrane extract (BM) prepared as 0.5× of stock solution. CM from fibroblasts or regular epithelial media containing 10% fetal calf serum (FCS) were added to the bottom chambers. Migrating or invading cells in the bottom chambers were stained and plate absorbance was recorded at 485/520 nm emission. Each assay was performed in triplicate and measured at 24 hour time points over 3 days and presented as the average absorbance of migrating cells and invading cells, with human HeLA cervical cancer cell line (ATCC) used as a reference positive control. […] Luciferase assays were performed using a Dual-Luciferase Reporter Assay kit, and fold induction for each cell line was calculated as normalized relative light units of TOPFLASH divided by those of FOPFLASH. […]

[8] = system: epithelial cells; assay: EMT-associated gene/protein expression in epithelial cells exposed to WNT16B conditioned medium; format: cell-based, human; conditions: epithelial cells in WNT16B fibroblast CM
[9] = system: PC3 cells; assay: Caspase 3/7 apoptosis assay of PC3 cells exposed to MIT; format: cell-based, human; conditions: 24 hour of MIT exposure (IC50)
Text: For apoptosis assays, 0.2×10^6 PC3 cells were dispensed into 6-well culture plates and co-cultured with media conditioned from PSC27 sublines. […] For the morphological analysis, bright field pictures were taken for PC3 cells with inverted phase-contrast microscopy.

[10] = system: prostate cancer cells; assay: Chemoresistance (viability) assay with MIT in fibroblast conditioned medium; format: cell-based, human
Description: Chemoresistance assays were performed using epithelial cells cultured with either DMEM and low serum (0.5% FCS) (abbreviated as “DMEM”), or conditioned medium (CM) generated from PSC27, […] or OVF28901 cells expressing vector controls, WNT16B, or siRNAs. […] Cell viability was then assayed, and the percentage of viable cells was calculated by comparing each experiment to vehicle-treated cells. Each assay was repeated a minimum of 3 times with results reported as mean±s.e.m. For chemoresistance assays, various neoplastic epithelial cells were cultured with either DMEM of low serum (0.5% FBS) only (abbreviated as “DMEM”), or CM generated from PSC27, HBF1023 or OVF28901 in various states (e.g., WNT16B overexpression, WNT16B knockdown, irradiated). […] Cell viability was assayed by MTS or direct counting with trypan blue, and the percentage of viable cells was calculated by normalizing absorbance of each experiment to untreated cells. To assess the influence of WNT16B across a range of MIT concentrations, a series of drug concentrations were applied bracketing the IC50 dose, with percent survival plotted against MIT dose at a 3-day time point. […] Luciferase assays were performed using a Dual-Luciferase Reporter Assay kit, and fold induction for each cell line was calculated as normalized relative light units of TOPFLASH divided by those of FOPFLASH. […]

[11] = system: WNT16B promoter; assay: WNT16B promoter luciferase reporter assay; format: cell-based, human; conditions: compared to untreated cells
Text: The immediate 5′ upstream sequences containing putative NF-κB binding elements of the WNT16B gene were amplified from genomic DNA extracted from PSC27 cells by a DNeasy Blood and Tissue kit (QIAGEN). PCR products were cloned into pCR2.1-TOPO vector (Invitrogen) and each insert was sequenced for confirmation. PCR fragments were then double-digested and subcloned into a reporter luciferase vector pGL4.22 vector. Constructs containing one or multiple mutant NF-κB binding sites were generated from the reporter vector series by site-directed mutagenesis. The NAT11-Luc2CP-IRES-nEGFP control construct that contains large copy numbers of NF-κB binding sequences and an optimized IL-2 minimal promoter as part of NFκB-activated transgene (NAT) system was kindly provided by Dr. Hatakeyama (Hokkaido University). All constructs were confirmed by DNA sequencing in both directions. Reporter vectors were co-transfected with pRL-TK vector for transfection efficiency controls and internal normalization for gene expression measurements. Cells were either treated with 20 ng/ml TNF-α for 90 min, exposed to 10 Gy γ-irradiation or 1 μM Mitoxantrone for 1 day. […] Luciferase activity was measured using the Luciferase Assay System and normalized luciferase activities were calculated as light units normalized to renilla luciferase activity present in each specimen.

O=C1c2c(O)ccc(O)c2C(=O)c2c(NCCNCCO)ccc(NCCNCCO)c21 [MIT, mitoxantrone]
tumor volumes, MIT vs no MIT ([1]; BPH-1 or PC3 plus PSC27^WNT16B or PSC27^C fibroblasts, three cycles of MIT): significantly reduced | tumor volume after MIT ([1]; PC3 + PSC27^C+shRNA^C grafts): 20 mm^3 | tumor volume after MIT ([1]; PC3+PSC27-RAD grafts (300 mm^3 without MIT)): 55 mm^3 | tumor volume after MIT ([1]; PC3+PSC27^C grafts): 13 mm^3 | tumor volume after MIT ([1]; PC3+PSC27^WNT16B grafts): 78 mm^3 | tumor size, MIT-treated vs untreated mice ([1]; tumor cells with unirradiated PSC27 fibroblasts (PSC27^C)): substantially smaller | apoptotic cells (cleaved caspase 3 IHC) ([2]; PC3+PSC27^C grafts): 34% | apoptotic cells (cleaved caspase 3 IHC) ([2]; PC3+PSC27^WNT16B tumors): 14% | expression of WNT16B protein in prostates, breasts and ovaries [3]: induced | number of γ-H2AX foci [4]: substantially increased

CO[C@H]1C[C@@H]2CC[C@@H](C)[C@@](O)(O2)C(=O)C(=O)N2CCCC[C@H]2C(=O)O[C@H]([C@H](C)C[C@@H]2CC[C@@H](O)[C@H](OC)C2)CC(=O)[C@H](C)/C=C(\C)[C@@H](O)[C@@H](OC)C(=O)[C@H](C)C[C@H](C)/C=C/C=C/C=C/1C [RAPA, Rapamycin]
reduction in tumor volumes [5]: approximately 60%

Oc1nc(-c2ccc(C(F)(F)F)cc2)nc2c1CSCC2 [XAV939]
proliferative effect of the PSC27-RAD DDSP (full DDSP CM) [6]: markedly attenuated; also recorded: attenuates | proliferative response induced by WNT16B (PSC27^WNT16B CM) [6]: completely suppressed; also recorded: suppresses | invasive effect of the PSC27-RAD DDSP (full DDSP) [7]: markedly attenuated; also recorded: attenuates | invasive response induced by WNT16B [7]: completely suppressed; also recorded: suppresses | WNT16B-induced EMT-associated gene expression [8]: blocked | attenuation of MIT apoptotic response by PSC27^WNT16B-conditioned medium [9]: blocked | effects of PSC27-RAD-conditioned medium on promoting tumor cell survival [10]: attenuated

bleomycin
number of γ-H2AX foci [4]: substantially increased

TNF-α
WNT16B reporter activity [11]: induced

OO [hydrogen peroxide]
number of γ-H2AX foci [4]: substantially increased
